Consider eight compounds from PubChem BioAssay AID1918956 (Molecular Pharmacology Branch, DTP, NCI, 2023).

The test system of the assay is OVCAR-5 complex spheroids, viability. As to the kind of experiment: Anticancer human tumor OVCAR-5 cell line growth inhibition.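 As to all read-outs here: spheroids exposed to agents for seven days.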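 As to viability, T/C: 100% = DMSO vehicle control wells viability.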 As to conditions: for viability, T/C: stronger effect = lower value. In outline:
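Multicellular complex spheroids of tumor cells with human endothelial cells (HUVEC) and mesenchymal stem cells; the LSD1 inhibitor iadademstat was combined with standard-of-care or investigational agents. Top concentration at or near clinical Cmax, half-log dilutions; final DMSO ≤0.25%.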

Setting [1] is: curve of first compound, second compound 0.1 µM.
Where [2] appears, read: curve of first compound, second compound 0.316 µM.
[3] abbreviates: curve of first compound, second compound 1 µM.
Where [4] appears, read: curve of first compound, second compound 3.16 µM.
Where [5] appears, read: curve of first compound, second compound 10 µM.
The mark [6] stands for this setting: second compound 0.1 µM, first compound 0.000949 µM.
[7] abbreviates: second compound 0.1 µM, first compound 0.003 µM.
[8] abbreviates: second compound 0.1 µM, first compound 0.00949 µM.
The mark [9] stands for this setting: second compound 0.1 µM, first compound 0.03 µM.
Where [10] appears, read: second compound 0.1 µM, first compound 0.0949 µM.
Setting [11] is: second compound 0.1 µM, first compound 0.3 µM.
[12] abbreviates: second compound 0.316 µM, first compound 0.000949 µM.
Where [13] appears, read: second compound 0.316 µM, first compound 0.003 µM.
Where [14] appears, read: second compound 0.316 µM, first compound 0.00949 µM.
The mark [15] stands for this setting: second compound 0.316 µM, first compound 0.03 µM.
Setting [16] is: second compound 0.316 µM, first compound 0.0949 µM.
Where [17] appears, read: second compound 0.316 µM, first compound 0.3 µM.
The mark [18] stands for this setting: second compound 1 µM, first compound 0.000949 µM.
Where [19] appears, read: second compound 1 µM, first compound 0.003 µM.
Setting [20] is: second compound 1 µM, first compound 0.00949 µM.
The mark [21] stands for this setting: second compound 1 µM, first compound 0.03 µM.
[22] abbreviates: second compound 1 µM, first compound 0.0949 µM.
The mark [23] stands for this setting: second compound 1 µM, first compound 0.3 µM.
Setting [24] is: second compound 3.16 µM, first compound 0.000949 µM.
The mark [25] stands for this setting: second compound 3.16 µM, first compound 0.003 µM.
Setting [26] is: second compound 3.16 µM, first compound 0.00949 µM.
The mark [27] stands for this setting: second compound 3.16 µM, first compound 0.03 µM.
Where [28] appears, read: second compound 3.16 µM, first compound 0.0949 µM.
[29] abbreviates: second compound 3.16 µM, first compound 0.3 µM.
Setting [30] is: second compound 10 µM, first compound 0.000949 µM.
Where [31] appears, read: second compound 10 µM, first compound 0.003 µM.
The mark [32] stands for this setting: second compound 10 µM, first compound 0.00949 µM.
Setting [33] is: second compound 10 µM, first compound 0.03 µM.
Setting [34] is: second compound 10 µM, first compound 0.0949 µM.
Setting [35] is: second compound 10 µM, first compound 0.3 µM.

Where “and” joins values, the source holds several entries; their conditions need not be identical. Equal entries are not always repeated.

As to `Nc1ncn(C2CC(O)C(CO)O2)c(=O)n1` (stereo not given), the viability, T/C is 93.5% and 108% (compound 0.00316 µM); 94% and 87.9% (compound 0.01 µM); 88.2% and 75.7% (compound 0.0316 µM); 77.1% and 76.2% (compound 0.1 µM); 72.5% and 69% (compound 0.316 µM); 72.5% and 69.2% (compound 1 µM). The IC50 (curve of compound) was more than 1000 nM.
With `O=C(C=Cn1cnc(-c2cc(C(F)(F)F)cc(C(F)(F)F)c2)n1)NNc1cnccn1`, the viability, T/C was 91.8% and 90.3% (compound 0.00316 µM); 83.9% and 74.8% (compound 0.01 µM); 72.3% and 58.3% (compound 0.0316 µM); 53.3% and 44% (compound 0.1 µM); 48.7% and 38.9% (compound 0.316 µM); 40.4% and 34.1% (compound 1 µM). The concentration for half-maximal inhibition (IC50) (curve of compound) was 196 nM and 63.7 nM.
With `CC1COCCN1c1cc(C2(S(C)(=N)=O)CC2)nc(-c2ccnc3[nH]ccc23)n1` (stereo not given), the viability, T/C is, setting by setting: (compound 0.0316 µM) 106% and 102%; (compound 0.1 µM) 110% and 101%; (compound 0.316 µM) 90.1% and 76%; (compound 1 µM) 57.5% and 48.9%; (compound 3.16 µM) 41.4% and 34.1%; (compound 10 µM) 35.5% and 25.4%. Further, the IC50 (curve of compound) was 1640 nM and 957 nM.
As to `Nc1ncn(C2CC(O)C(CO)S2)c(=O)n1` (stereo not given) + NC1CC1c1ccc(-c2cccc(O)c2)cc1, the half-maximal inhibitory concentration (IC50) by setting is: under setting [1], more than 300 nM; under setting [2], more than 300 nM; under setting [3], more than 300 nM; under setting [4], more than 300 nM; under setting [5], more than 300 nM. Besides, the viability, T/C under setting [6] is 100%; the viability, T/C under setting [7] was 110%; the viability, T/C under setting [8] is 104%; the viability, T/C under setting [9] was 95%; the viability, T/C under setting [10] is 80.9%; the viability, T/C under setting [11] was 71.2%. Also, the viability, T/C reads like this: under setting [12], 107%; under setting [13], 112%; under setting [14], 108%; under setting [15], 96.2%; under setting [16], 88.5%; under setting [17], 69.8%. The viability, T/C runs as follows: under setting [18], 93.7%; under setting [19], 86.6%; under setting [20], 93.9%; under setting [21], 92.4%; under setting [22], 74.7%; under setting [23], 61.7%. Moreover, the viability, T/C is 95.8% under setting [24]; 97.8% under setting [25]; 91.3% under setting [26]; 81.6% under setting [27]; 79.8% under setting [28]; 64.4% under setting [29]. Also, the viability, T/C runs as follows: under setting [30], 79%; under setting [31], 93.6%; under setting [32], 84.8%; under setting [33], 78.1%; under setting [34], 70%; under setting [35], 60%.
For `COc1ccc([C@@H](O)c2cc(-c3ncnc4cc(N5CCOCC5)ccc34)c(F)cc2Cl)nn1`, the viability, T/C was 92.1% and 91.6% (compound 0.0316 µM); 91.6% and 84.7% (compound 0.1 µM); 73.3% and 58.1% (compound 0.316 µM); 55.4% and 44.1% (compound 1 µM); 45.3% and 32.7% (compound 3.16 µM); 24.9% and 18.4% (compound 10 µM). The 50% inhibitory concentration (IC50) (curve of compound) is 1790 nM and 690 nM.
As for `Nc1ccn(C2OC(CO)C(O)C2(F)F)c(=O)n1` (stereo not given) + NC1CC1c1ccc(-c2cccc(O)c2)cc1, the IC50 is less than 0.949 nM under setting [1]; less than 0.949 nM under setting [2]; less than 0.949 nM under setting [3]; less than 0.949 nM under setting [4]; less than 0.949 nM under setting [5]. Further, the viability, T/C is 25.5% under setting [6]; 27.5% under setting [7]; 26.3% under setting [8]; 27.9% under setting [9]; 24.9% under setting [10]; 26.1% under setting [11]. Besides, the viability, T/C by setting is: under setting [12], 26.9%; under setting [13], 26.6%; under setting [14], 28%; under setting [15], 27.6%; under setting [16], 27.1%; under setting [17], 28.5%. Further, the viability, T/C was 27.1% under setting [18]; 25% under setting [19]; 24.1% under setting [20]; 27.9% under setting [21]; 24.8% under setting [22]; 25.4% under setting [23]. For the same compound, the viability, T/C was 27.5% under setting [24]; 28.6% under setting [25]; 27.1% under setting [26]; 27.9% under setting [27]; 29.5% under setting [28]; 25.9% under setting [29]. Besides, the viability, T/C is, setting by setting: under setting [30], 29%; under setting [31], 29.1%; under setting [32], 28.6%; under setting [33], 26.9%; under setting [34], 28.9%; under setting [35], 28.4%.
Turning to `CC[C@@]1(O)C(=O)OCc2c1cc1n(c2=O)Cc2cc3c(CN(C)C)c(O)ccc3nc2-1` + NC1CCC(NC2CC2c2ccccc2)CC1, the concentration for half-maximal inhibition (IC50) reads like this: under setting [1], 5.66 nM; under setting [2], 10.9 nM; under setting [3], 11.2 nM; under setting [4], 12.1 nM; under setting [5], 9.89 nM. Further, the viability, T/C reads like this: (second compound 0.1 µM, first compound 0.000316 µM) 103%; (second compound 0.1 µM, first compound 0.001 µM) 105%; (second compound 0.1 µM, first compound 0.00316 µM) 58.8%; (second compound 0.1 µM, first compound 0.01 µM) 50.2%; (second compound 0.1 µM, first compound 0.0316 µM) 48%; (second compound 0.1 µM, first compound 0.1 µM) 23.4%. Further, the viability, T/C is 112% (second compound 0.316 µM, first compound 0.000316 µM); 97.7% (second compound 0.316 µM, first compound 0.001 µM); 56.5% (second compound 0.316 µM, first compound 0.00316 µM); 49.8% (second compound 0.316 µM, first compound 0.01 µM); 50% (second compound 0.316 µM, first compound 0.0316 µM); 24% (second compound 0.316 µM, first compound 0.1 µM). In addition, the viability, T/C (second compound 1 µM, first compound 0.000316 µM) was 105%; the viability, T/C (second compound 1 µM, first compound 0.001 µM) was 93.3%; the viability, T/C (second compound 1 µM, first compound 0.00316 µM) was 56.9%; the viability, T/C (second compound 1 µM, first compound 0.01 µM) was 51.2%; the viability, T/C (second compound 1 µM, first compound 0.0316 µM) is 47.7%; the viability, T/C (second compound 1 µM, first compound 0.1 µM) is 26.7%. The viability, T/C reads like this: (second compound 3.16 µM, first compound 0.000316 µM) 109%; (second compound 3.16 µM, first compound 0.001 µM) 98.5%; (second compound 3.16 µM, first compound 0.00316 µM) 62.4%; (second compound 3.16 µM, first compound 0.01 µM) 51.3%; (second compound 3.16 µM, first compound 0.0316 µM) 49.3%; (second compound 3.16 µM, first compound 0.1 µM) 28.2%. The viability, T/C (second compound 10 µM, first compound 0.000316 µM) is 91.1%; the viability, T/C (second compound 10 µM, first compound 0.001 µM) is 85.5%; the viability, T/C (second compound 10 µM, first compound 0.00316 µM) was 51.8%; the viability, T/C (second compound 10 µM, first compound 0.01 µM) was 49.3%; the viability, T/C (second compound 10 µM, first compound 0.0316 µM) is 48.7%; the viability, T/C (second compound 10 µM, first compound 0.1 µM) was 27.7%.
For `CCN(c1cc(-c2ccc(CN3CCOCC3)cc2)cc(C(=O)NCc2c(C)cc(C)[nH]c2=O)c1C)C1CCOCC1`, the viability, T/C (compound 0.00949 µM) is 101% and 110%; the viability, T/C (compound 0.03 µM) was 102% and 107%; the viability, T/C (compound 0.0949 µM) was 104% and 103%; the viability, T/C (compound 0.3 µM) was 102% and 97.2%; the viability, T/C (compound 0.949 µM) is 98.4% and 103%; the viability, T/C (compound 3 µM) was 100% and 109%. The concentration for half-maximal inhibition (IC50) (curve of compound) was more than 3000 nM.

In general, viability, T/C refers to the ratio of treated to control. As usually defined, the IC50 is the concentration needed to halve the response being measured.
